Results reported in ChEMBL document CHEMBL6074662, “Antibacterial, Antibiofilm, and Anti-inflammatory Effects of a Novel Thrombin-Derived Peptide in Sepsis Models: Insights into Underlying Mechanisms” (J Med Chem, 2024).
Calls of active or inactive are those of the source. The calls are words filed in the database; no cut-off is given here.

Key:
[1] = Hydrophobicity of compound assessed as retention time by RP-HPLC analysis; assay type: physicochemical
[2] = test system: Staphylococcus aureus; assay: Antibacterial activity against Staphylococcus aureus KCTC 1621 incubated for 24 hrs by CLSI based broth microdilution method; assay type: functional
[3] = test system: Staphylococcus aureus; assay: Antibacterial activity against methicillin-resistant Staphylococcus aureus CCARM 3090 incubated for 24 hrs by CLSI based broth microdilution method; assay type: functional
[4] = test system: Enterococcus faecium; assay: Antibacterial activity against vancomycin-resistant Enterococcus faecium ATCC 51559 incubated for 24 hrs by CLSI based broth microdilution method; assay type: functional
[5] = test system: Escherichia coli; assay: Antibacterial activity against Escherichia coli KCTC 1682 incubated for 24 hrs by CLSI based broth microdilution method; assay type: functional
[6] = test system: Pseudomonas aeruginosa; assay: Antibacterial activity against multidrug-resistant Pseudomonas aeruginosa CCARM 2109 incubated for 24 hrs by CLSI based broth microdilution method; assay type: functional
[7] = test system: Acinetobacter baumannii; assay: Antibacterial activity against carbapenem-resistant Acinetobacter baumannii CCARM 12005 incubated for 24 hrs by CLSI based broth microdilution method; assay type: functional
[8] = Hemolytic activity in sheep RBC incubated for 1 hr by absorbance based assay; assay type: toxicity, cell-based, Ovis aries; details: erythrocyte
[9] = test system: Escherichia coli; assay: Antibacterial activity against Escherichia coli KCTC 1682 incubated for 24 hrs in presence of NaCl by CLSI based broth microdilution method; assay type: functional
[10] = test system: Escherichia coli; assay: Antibacterial activity against Escherichia coli KCTC 1682 incubated for 24 hrs in presence of KCl by CLSI based broth microdilution method; assay type: functional
[11] = test system: Escherichia coli; assay: Antibacterial activity against Escherichia coli KCTC 1682 incubated for 24 hrs in presence of CaCl2 by CLSI based broth microdilution method; assay type: functional
[12] = Hemolytic activity in sheep RBC at 256 uM incubated for 1 hr by absorbance based assay; assay type: toxicity, cell-based, Ovis aries, Erythrocyte; details: sheep red blood cells, read-out: Activity
[13] = Effect on secondary structure of drug in SDS assessed as fold increase in formation of alpha-helical conformation at 150 uM by CD analysis relative to HVF18; assay type: physicochemical
[14] = test system: Escherichia coli; assay: Induction of outer membrane permeabilization in Escherichia coli KCTC 1682 by NPN dye based analysis; assay type: functional, organism-based
[15] = test system: Pseudomonas aeruginosa; assay: Inhibition of biofilm formation in multi-drug resistant Pseudomonas aeruginosa CCARM 2095 at 4 to 8 uM by crystal violet staining based analysis relative to control; assay type: functional; details: dose 4-8 µM
[16] = test system: Pseudomonas aeruginosa; assay: Eradication of biofilm formation in multi-drug resistant Pseudomonas aeruginosa CCARM 2095 at 32 uM incubated for 12 hrs by CLSM analysis relative to control; assay type: functional
[17] = test system: Pseudomonas aeruginosa; assay: Inhibition of biofilm formation in multi-drug resistant Pseudomonas aeruginosa CCARM 2095 at 1 to 128 uM by crystal violet staining based analysis; assay type: functional, organism-based; details: dose 1-128 µM
[18] = test system: Pseudomonas aeruginosa; assay: Anti-biofilm activity against multi-drug resistant Pseudomonas aeruginosa CCARM 2095 assessed as increase in red-stained dead cells at 32 uM incubated for 12 hrs by SYTO9/PI staining based analysis; assay type: functional, organism-based
[19] = test system: Staphylococcus aureus; assay: Synergistic antibacterial activity against methicillin-resistant Staphylococcus aureus CCARM 3089 assessed as MIC of Chloramphenicol incubated for 24 hrs by broth microdilution method; assay type: functional
[20] = test system: Staphylococcus aureus; assay: Synergistic antibacterial activity against methicillin-resistant Staphylococcus aureus CCARM 3089 assessed as fractional inhibitory concentration index by measuring ratio of MIC of compound in presence of Chloramphenicol to MIC to compound incubated for 24 hrs by broth microdilution method; assay type: functional
[21] = test system: Staphylococcus aureus; assay: Synergistic antibacterial activity against methicillin-resistant Staphylococcus aureus CCARM 3089 incubated for 24 hrs in presence of Ciprofloxacin by broth microdilution method; assay type: functional
[22] = test system: Staphylococcus aureus; assay: Synergistic antibacterial activity against methicillin-resistant Staphylococcus aureus CCARM 3089 assessed as fractional inhibitory concentration index incubated for 24 hrs in presence of Ciprofloxacin by broth microdilution method; assay type: functional
[23] = test system: Staphylococcus aureus; assay: Synergistic antibacterial activity against methicillin-resistant Staphylococcus aureus CCARM 3089 assessed as MIC of Oxacillin incubated for 24 hrs by broth microdilution method; assay type: functional
[24] = test system: Staphylococcus aureus; assay: Synergistic antibacterial activity against methicillin-resistant Staphylococcus aureus CCARM 3089 incubated for 24 hrs in presence of Oxacillin by broth microdilution method; assay type: functional
[25] = test system: Staphylococcus aureus; assay: Synergistic antibacterial activity against methicillin-resistant Staphylococcus aureus CCARM 3089 assessed as fractional inhibitory concentration index incubated for 24 hrs in presence of Oxacillin by broth microdilution method; assay type: functional
[26] = test system: Pseudomonas aeruginosa; assay: Synergistic antibacterial activity against multi-drug resistant Pseudomonas aeruginosa CCARM 2095 incubated for 24 hrs in presence of Chloramphenicol by broth microdilution method; assay type: functional
[27] = test system: Pseudomonas aeruginosa; assay: Synergistic antibacterial activity against multi-drug resistant Pseudomonas aeruginosa CCARM 2095 assessed as fractional inhibitory concentration index by measuring ratio of MIC of compound in presence of Chloramphenicol to MIC to compound incubated for 24 hrs by broth microdilution method; assay type: functional
[28] = test system: Pseudomonas aeruginosa; assay: Synergistic antibacterial activity against multi-drug resistant Pseudomonas aeruginosa CCARM 2095 assessed as MIC of Ciprofloxacin incubated for 24 hrs by broth microdilution method; assay type: functional
[29] = test system: Pseudomonas aeruginosa; assay: Synergistic antibacterial activity against multi-drug resistant Pseudomonas aeruginosa CCARM 2095 incubated for 24 hrs in presence of Ciprofloxacin by broth microdilution method; assay type: functional
[30] = test system: Pseudomonas aeruginosa; assay: Synergistic antibacterial activity against multi-drug resistant Pseudomonas aeruginosa CCARM 2095 assessed as fractional inhibitory concentration index incubated for 24 hrs in presence of Ciprofloxacin by broth microdilution method; assay type: functional
[31] = test system: Pseudomonas aeruginosa; assay: Synergistic antibacterial activity against multi-drug resistant Pseudomonas aeruginosa CCARM 2095 assessed as MIC of Oxacillin incubated for 24 hrs by broth microdilution method; assay type: functional
[32] = test system: Pseudomonas aeruginosa; assay: Synergistic antibacterial activity against multi-drug resistant Pseudomonas aeruginosa CCARM 2095 assessed as fractional inhibitory concentration index by measuring ratio of MIC of Oxacillin in presence of compound to MIC to Oxacillin incubated for 24 hrs by broth microdilution method; assay type: functional
[33] = test system: Pseudomonas aeruginosa; assay: Synergistic antibacterial activity against multi-drug resistant Pseudomonas aeruginosa CCARM 2095 assessed as fractional inhibitory concentration index incubated for 24 hrs in presence of Oxacillin by broth microdilution method; assay type: functional
[34] = test system: RAW264.7; assay: Anti-inflammatory activity in mouse RAW264.7 cells assessed as decrease in LPS-induced TNF-alpha level at 2.5 uM pretreated for 1 hr followed by LPS treatment for 16 hrs by ELISA relative to control; assay type: functional; details: time 17 hrs
[35] = test system: RAW264.7; assay: Anti-inflammatory activity in mouse RAW264.7 cells assessed as decrease in LPS-induced IL-6 level at 2.5 uM pretreated for 1 hr followed by LPS treatment for 16 hrs by ELISA relative to control; assay type: functional; details: time 17 hrs
[36] = test system: RAW264.7; assay: Anti-inflammatory activity in mouse RAW264.7 cells assessed as decrease in LPS-induced ROS production at 2.5 uM pretreated for 1 hr followed by LPS treatment for 16 hrs by DCFDA staining based analysis relative to control; assay type: functional; details: time 17 hrs
[37] = Cytotoxicity against mouse RAW264.7 cells assessed as cell survival at 10 to 20 uM incubated for 16 hrs by WST-8 assay relative to control; assay type: toxicity, cell-based; details: dose 10-20 µM, read-out: Survival
[38] = Cytotoxicity against mouse RAW264.7 cells assessed as cell viability at 30 uM incubated for 16 hrs by WST-8 assay relative to control; assay type: toxicity, cell-based; details: read-out: Activity

| Substance | Retention_time [1] [min] | MIC [2] [µM] | MIC [3] [µM] | MIC [4] [µM] | MIC [5] [µM] | MIC [6] [µM] | MIC [7] [µM] | HC10 [8] [µM] | MIC [9] [µM] | MIC [10] [µM] | MIC [11] [µM] | hemolysis at 1 h, 256 µM [12] [%] | fold change (FC) [13] | Activity [14] | inhibition (INH) [15] [%] | Activity [16] [%] | Activity [17] | Activity [18] | MIC [19] [µM] | FIC [20] | other results |
| --- | --- | --- | --- | --- | --- | --- | --- | --- | --- | --- | --- | --- | --- | --- | --- | --- | --- | --- | --- | --- | --- |
| H-GVFRLKKWIKKVIKKWGK-NH2 | 20.06 | 8 | 8 | 8 | 16 | 16 | 4 | > 256 | 32 | 32 | 32 | 8.9 | ~ 5 | Dose-dependent-effect | >50 | >50 | Active; Superior Activity Compared To Ll-37 | Active | 256 | 0.25 | MIC [21]: 2 µM; fractional inhibitory concentration index (FICI) [22]: 0.75; MIC [23]: 512 µM; MIC [24]: 0.5 µM; fractional inhibitory concentration index (FICI) [25]: 0.313; MIC [26]: 2 µM; FIC [27]: 0.25; MIC [28]: 128 µM; MIC [29]: 4 µM; fractional inhibitory concentration index (FICI) [30]: 0.625; MIC [31]: 128 µM; FIC [32]: 0.031; fractional inhibitory concentration index (FICI) [33]: 0.281; inhibition at 2.5 µM [34]: 2.6%; inhibition at 2.5 µM [35]: 28.6%; inhibition at 2.5 µM [36]: 14.9%; viability at 16 h, up to 20 µM [37]: > 95%; viability at 16 h, 30 µM [38]: > 80% |
| H-GVFRLKKWLKKVKKWGK-NH2 | 21.66 | 8 | 8 | 8 | 16 | 8 | 4 | > 256 | 32 | 16 | 16 | 9.1 | ~ 5 | Dose-dependent-effect | >50 | >50 | Active; Superior Activity Compared To Ll-37 | Active | 512 | 0.063 | MIC [21]: 4 µM; fractional inhibitory concentration index (FICI) [22]: 1; MIC [23]: 512 µM; MIC [24]: 0.5 µM; fractional inhibitory concentration index (FICI) [25]: 0.313; MIC [26]: 2 µM; FIC [27]: 0.25; MIC [28]: 256 µM; MIC [29]: 4 µM; fractional inhibitory concentration index (FICI) [30]: 0.75; MIC [31]: 128 µM; FIC [32]: 0.031; fractional inhibitory concentration index (FICI) [33]: 0.281; inhibition at 2.5 µM [34]: 32.3%; inhibition at 2.5 µM [35]: 98.5%; inhibition at 2.5 µM [36]: 38.2%; viability at 16 h, up to 20 µM [37]: > 95%; viability at 16 h, 30 µM [38]: > 80% |
